Data: paper PMC9736855, “Discovery of 3-Amino-1H-pyrazole-Based Kinase Inhibitors to Illuminate the Understudied PCTAIRE Family” (International Journal of Molecular Sciences, 2022)

Assays:
MST4 = target: T1, MST4 (Homo sapiens, UniProt Q9P289); experiment: DSF; format: binding
T1 construct: purchased in-house DSF panel (SGC Frankfurt)
Description: (§2) Recombinant protein kinase domains with a concentration of 2 μM were mixed with a 10 μM compound solution in DMSO, 20 mM HEPES, pH 7.5, and 500 mM NaCl. SYPRO Orange (5000×, Invitrogen) was added as a fluorescence probe (1 µl per mL). Subsequently, temperature-dependent protein unfolding profiles were measured, using the QuantStudio™ 5 realtime PCR machine (Thermo Fisher, Waltham, MA, USA). […] The temperature was raised with a step rate of 3 °C per minute. Data points were analyzed with the internal software (Thermal Shift SoftwareTM Version 1.4, Thermo Fisher) using the Boltzmann equation to determine the inflection point of the transition curve [56]. Differences in melting temperature are given as ΔTm values in °C. Measurements were performed in duplicates.

CDK11B/Cyclin K = CDK11B/Cyclin K (Homo sapiens, UniProt P21127); experiment: NanoBRET; format: cell-based; details: read-out: NanoBRET EC50 ± SEM CDK11B/Cyclin K
Description: (§1) The assay was performed as described previously. In brief: Full-length kinases were obtained as plasmids cloned in frame with a terminal NanoLuc-fusion (Promega, Madison, WI, USA), as specified in table (Table S6). Plasmids were transfected into HEK293T cells using FuGENE HD (Promega, E2312) and proteins were allowed to express for 20h. Serially diluted inhibitor and NanoBRET Kinase Tracer (Promega) at a concentration determined previously as the KD,app (Table S5) were pipetted into white 384-well plates (Greiner 781207) using an Echo acoustic dispenser (Labcyte, San Jose, CA, USA). The corresponding protein-transfected cells were added and reseeded at a density of 2.5 × 10^5 cells/mL after trypsinization and resuspending in Opti-MEM without phenol red (Life Technologies, Carlsbad, CA, USA). The system was allowed to equilibrate for 2 h at 37 °C/5% CO2 prior to BRET measurements. To measure BRET, NanoBRET NanoGlo Substrate + Extracellular NanoLuc Inhibitor (Promega, N2540) was added as per the manufacturer’s protocol, and filtered luminescence was measured on a PHERAstar plate reader (BMG Labtech, Ortenberg, Germany) equipped with a luminescence filter pair (450 nm BP filter (donor) and 610 nm LP filter (acceptor)). Competitive displacement data were then graphed using GraphPad Prism 9 software using a normalized 3-parameter curve fit with the following equation: Y = 100/(1 + 10^(X–LogEC50)).

CDK4/Cyclin D3 = target: T2, CDK4/Cyclin D3 (Homo sapiens, UniProt P11802); experiment: NanoBRET; format: cell-based; details: read-out: NanoBRET EC50 ± SEM CDK4/Cyclin D3
T2 construct: Full-length kinases were obtained as plasmids cloned in frame with a terminal NanoLuc-fusion; CS1810C87 (CCND3); host or cells: HEK293T
Description: as §1

CDK1/Cyclin E1 = target: T3, CDK1/Cyclin E1 (Homo sapiens, UniProt P06493); experiment: NanoBRET; format: cell-based; details: read-out: NanoBRET EC50 ± SEM CDK1/Cyclin E1
T3 construct: Full-length kinases were obtained as plasmids cloned in frame with a terminal NanoLuc-fusion; CS1810C171 (CCNE1); host or cells: HEK293T
Description: as §1

CDK9/Cyclin K = target: T4, CDK9/Cyclin K (Homo sapiens, UniProt P50750); experiment: NanoBRET; format: cell-based; details: read-out: NanoBRET EC50 ± SEM CDK9/Cyclin K
T4 construct: Full-length kinases were obtained as plasmids cloned in frame with a terminal NanoLuc-fusion; CS1810C93 (CCNK); host or cells: HEK293T
Description: as §1

CDK2/Cyclin D1 = target: T5, CDK2/Cyclin D1 (Homo sapiens, UniProt P24941); experiment: NanoBRET; format: cell-based; details: read-out: NanoBRET EC50 ± SEM CDK2/Cyclin D1
T5 construct: Full-length kinases were obtained as plasmids cloned in frame with a terminal NanoLuc-fusion; CS1810C118 (CCND1); host or cells: HEK293T
Description: as §1

CDK3/Cyclin E1 = target: T6, CDK3/Cyclin E1 (Homo sapiens, UniProt Q00526); experiment: NanoBRET; format: cell-based; details: read-out: NanoBRET EC50 ± SEM CDK3/Cyclin E1
T6 construct: Full-length kinases were obtained as plasmids cloned in frame with a terminal NanoLuc-fusion; CS1810C171 (CCNE1); host or cells: HEK293T
Description: as §1

CDK11B/Cyclin L2 = CDK11B/Cyclin L2 (Homo sapiens, UniProt P21127); experiment: NanoBRET; format: cell-based; details: read-out: NanoBRET EC50 ± SEM CDK11B/Cyclin L2
Description: as §1

CDK10/Cyclin L2 = CDK10/Cyclin L2 (Homo sapiens, UniProt Q15131); experiment: NanoBRET; format: cell-based; details: read-out: NanoBRET EC50 ± SEM CDK10/Cyclin L2
Description: as §1

CDK13/Cyclin K = target: T7, CDK13/Cyclin K (Homo sapiens, UniProt Q14004); experiment: NanoBRET; format: cell-based; details: read-out: NanoBRET EC50 ± SEM CDK13/Cyclin K
T7 construct: Full-length kinases were obtained as plasmids cloned in frame with a terminal NanoLuc-fusion; CS1810C93 (CCNK); host or cells: HEK293T
Description: as §1

CDK4/Cyclin D1 = target: T8, CDK4/Cyclin D1 (Homo sapiens, UniProt P11802); experiment: NanoBRET; format: cell-based; details: read-out: NanoBRET EC50 ± SEM CDK4/Cyclin D1
T8 construct: Full-length kinases were obtained as plasmids cloned in frame with a terminal NanoLuc-fusion; CS1810C118 (CCND1); host or cells: HEK293T
Description: as §1

CDK7 = target: T9, CDK7 (Homo sapiens, UniProt P50613); experiment: NanoBRET; format: cell-based; details: read-out: NanoBRET EC50 ± SEM CDK7
T9 construct: Full-length kinases were obtained as plasmids cloned in frame with a terminal NanoLuc-fusion; host or cells: HEK293T
Description: as §1

CDK2/Cyclin A2 = target: T10, CDK2/Cyclin A2 (Homo sapiens, UniProt P24941); experiment: NanoBRET; format: cell-based; details: read-out: NanoBRET EC50 ± SEM CDK2/Cyclin A2
T10 construct: Full-length kinases were obtained as plasmids cloned in frame with a terminal NanoLuc-fusion; CCNA2: 'Promega', no number; host or cells: HEK293T
Description: as §1

CDK15/Cyclin Y = target: T11, CDK15/Cyclin Y (Homo sapiens, UniProt Q96Q40); experiment: NanoBRET; format: cell-based; details: read-out: NanoBRET EC50 ± SEM CDK15/Cyclin Y
T11 construct: Full-length kinases were obtained as plasmids cloned in frame with a terminal NanoLuc-fusion; CS1810C178 (CCNY); host or cells: HEK293T
Description: as §1

RPS6KA6 = experiment: DSF; format: binding
Description: as §2

T4 sequence (P50750 whole entry, the tested form may be a part): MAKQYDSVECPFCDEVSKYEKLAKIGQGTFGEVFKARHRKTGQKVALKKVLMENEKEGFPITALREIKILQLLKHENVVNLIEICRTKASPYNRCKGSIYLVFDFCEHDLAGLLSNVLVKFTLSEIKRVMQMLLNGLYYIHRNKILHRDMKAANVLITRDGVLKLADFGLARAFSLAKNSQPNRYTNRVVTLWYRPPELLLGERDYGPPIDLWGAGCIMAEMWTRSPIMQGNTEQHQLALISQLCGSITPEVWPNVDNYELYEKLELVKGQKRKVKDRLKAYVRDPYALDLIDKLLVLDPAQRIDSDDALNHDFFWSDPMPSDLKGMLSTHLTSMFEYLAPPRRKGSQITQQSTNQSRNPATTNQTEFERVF
T9 sequence (P50613 whole entry, the tested form may be a part): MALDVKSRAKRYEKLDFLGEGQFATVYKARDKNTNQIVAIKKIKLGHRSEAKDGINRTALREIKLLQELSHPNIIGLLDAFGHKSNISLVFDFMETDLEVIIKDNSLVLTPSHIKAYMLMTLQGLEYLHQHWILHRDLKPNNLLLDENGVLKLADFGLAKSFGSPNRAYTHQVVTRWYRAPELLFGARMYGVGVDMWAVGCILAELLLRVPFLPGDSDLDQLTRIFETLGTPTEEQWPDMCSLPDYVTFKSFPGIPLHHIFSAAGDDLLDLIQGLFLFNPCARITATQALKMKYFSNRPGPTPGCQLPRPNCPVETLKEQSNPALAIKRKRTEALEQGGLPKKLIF
T1 sequence (Q9P289 1-300): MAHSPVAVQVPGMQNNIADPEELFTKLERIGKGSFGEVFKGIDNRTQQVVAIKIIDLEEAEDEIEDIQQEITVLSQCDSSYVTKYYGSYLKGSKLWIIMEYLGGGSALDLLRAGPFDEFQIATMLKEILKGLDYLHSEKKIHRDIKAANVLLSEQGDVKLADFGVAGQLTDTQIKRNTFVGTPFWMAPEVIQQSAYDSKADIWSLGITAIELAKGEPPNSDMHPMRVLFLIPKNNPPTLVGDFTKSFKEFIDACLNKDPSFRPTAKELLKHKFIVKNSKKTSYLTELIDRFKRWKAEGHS
Sequence of CDK11B/Cyclin K (P21127 whole entry, the tested form may be a part): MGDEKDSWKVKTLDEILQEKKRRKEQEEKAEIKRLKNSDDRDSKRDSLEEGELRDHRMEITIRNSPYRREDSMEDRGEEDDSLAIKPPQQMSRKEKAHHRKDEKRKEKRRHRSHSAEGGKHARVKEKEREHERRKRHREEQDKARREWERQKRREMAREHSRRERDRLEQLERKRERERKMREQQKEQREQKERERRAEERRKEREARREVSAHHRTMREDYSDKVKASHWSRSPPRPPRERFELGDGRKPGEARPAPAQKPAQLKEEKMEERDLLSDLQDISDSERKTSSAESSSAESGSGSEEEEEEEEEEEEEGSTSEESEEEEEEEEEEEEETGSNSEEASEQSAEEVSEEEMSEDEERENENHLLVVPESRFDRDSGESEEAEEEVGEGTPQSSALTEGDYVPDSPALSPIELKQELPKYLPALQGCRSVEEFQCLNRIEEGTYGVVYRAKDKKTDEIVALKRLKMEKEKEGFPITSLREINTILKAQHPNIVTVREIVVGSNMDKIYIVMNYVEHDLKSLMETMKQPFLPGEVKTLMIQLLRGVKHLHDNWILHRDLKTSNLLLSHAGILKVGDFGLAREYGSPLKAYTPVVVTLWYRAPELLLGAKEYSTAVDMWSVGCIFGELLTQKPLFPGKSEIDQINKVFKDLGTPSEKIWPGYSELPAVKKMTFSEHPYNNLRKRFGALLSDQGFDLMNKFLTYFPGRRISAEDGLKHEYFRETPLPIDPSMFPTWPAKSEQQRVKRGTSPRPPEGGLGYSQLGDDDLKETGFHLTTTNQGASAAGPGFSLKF
Sequence of CDK11B/Cyclin L2 (P21127 whole entry): as the sequence (P21127 whole entry, the tested form may be a part) above
Sequence of CDK11B/Cyclin L2 (Q96S94 whole entry partner): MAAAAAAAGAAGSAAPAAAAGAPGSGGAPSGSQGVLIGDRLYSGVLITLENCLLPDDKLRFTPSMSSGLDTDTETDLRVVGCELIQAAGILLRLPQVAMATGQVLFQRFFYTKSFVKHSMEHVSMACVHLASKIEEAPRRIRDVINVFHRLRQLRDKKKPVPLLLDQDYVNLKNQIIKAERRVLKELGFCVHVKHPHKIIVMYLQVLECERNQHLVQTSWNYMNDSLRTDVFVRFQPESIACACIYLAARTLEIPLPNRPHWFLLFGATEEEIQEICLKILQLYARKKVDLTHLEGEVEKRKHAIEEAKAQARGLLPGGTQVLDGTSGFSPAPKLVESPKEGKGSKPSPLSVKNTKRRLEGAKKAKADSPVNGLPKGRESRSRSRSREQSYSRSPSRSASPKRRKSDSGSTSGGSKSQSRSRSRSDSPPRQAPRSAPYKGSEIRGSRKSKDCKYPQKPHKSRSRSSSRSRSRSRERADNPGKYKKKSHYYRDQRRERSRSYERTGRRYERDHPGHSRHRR
Sequence of CDK10/Cyclin L2 (Q15131 whole entry): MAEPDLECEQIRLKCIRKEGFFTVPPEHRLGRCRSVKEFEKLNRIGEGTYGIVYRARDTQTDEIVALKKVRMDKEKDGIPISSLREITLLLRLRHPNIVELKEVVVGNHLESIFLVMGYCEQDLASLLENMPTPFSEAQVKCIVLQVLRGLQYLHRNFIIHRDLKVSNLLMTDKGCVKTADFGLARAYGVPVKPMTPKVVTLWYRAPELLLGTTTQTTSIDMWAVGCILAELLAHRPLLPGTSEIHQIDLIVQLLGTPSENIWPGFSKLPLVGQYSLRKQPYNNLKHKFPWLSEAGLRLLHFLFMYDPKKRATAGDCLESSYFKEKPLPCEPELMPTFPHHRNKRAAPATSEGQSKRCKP
T2 sequence (P11802 whole entry, the tested form may be a part): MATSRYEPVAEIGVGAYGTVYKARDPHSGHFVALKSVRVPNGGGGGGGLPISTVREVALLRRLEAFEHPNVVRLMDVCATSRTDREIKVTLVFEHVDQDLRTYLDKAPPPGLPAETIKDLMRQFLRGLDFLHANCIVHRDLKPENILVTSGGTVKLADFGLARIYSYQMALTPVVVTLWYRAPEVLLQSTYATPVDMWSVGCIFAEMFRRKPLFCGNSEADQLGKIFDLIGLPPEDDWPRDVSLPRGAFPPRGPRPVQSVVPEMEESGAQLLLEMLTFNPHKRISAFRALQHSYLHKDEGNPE
T2 sequence (P30281 whole entry partner, the tested form may be a part): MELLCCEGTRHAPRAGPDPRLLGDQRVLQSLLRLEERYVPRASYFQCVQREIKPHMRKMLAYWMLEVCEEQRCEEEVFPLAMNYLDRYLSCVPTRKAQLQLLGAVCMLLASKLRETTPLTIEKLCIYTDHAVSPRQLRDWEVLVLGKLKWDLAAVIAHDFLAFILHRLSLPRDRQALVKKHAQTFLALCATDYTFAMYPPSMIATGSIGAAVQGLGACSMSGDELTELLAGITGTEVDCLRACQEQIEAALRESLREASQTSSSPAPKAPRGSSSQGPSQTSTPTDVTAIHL
T8 sequence (P11802 whole entry, the tested form may be a part): as the sequence (P11802 whole entry, the tested form may be a part) above
T8 sequence (P24385 whole entry partner, the tested form may be a part): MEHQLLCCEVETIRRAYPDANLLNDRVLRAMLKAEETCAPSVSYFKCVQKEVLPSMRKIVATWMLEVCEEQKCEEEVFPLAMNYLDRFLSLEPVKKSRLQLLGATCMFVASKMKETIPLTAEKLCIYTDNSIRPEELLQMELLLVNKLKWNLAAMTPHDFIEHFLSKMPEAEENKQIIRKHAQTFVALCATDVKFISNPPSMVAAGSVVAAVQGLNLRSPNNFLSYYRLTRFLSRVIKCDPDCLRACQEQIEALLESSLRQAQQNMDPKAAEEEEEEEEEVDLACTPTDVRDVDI
T11 sequence (Q96Q40 whole entry, the tested form may be a part): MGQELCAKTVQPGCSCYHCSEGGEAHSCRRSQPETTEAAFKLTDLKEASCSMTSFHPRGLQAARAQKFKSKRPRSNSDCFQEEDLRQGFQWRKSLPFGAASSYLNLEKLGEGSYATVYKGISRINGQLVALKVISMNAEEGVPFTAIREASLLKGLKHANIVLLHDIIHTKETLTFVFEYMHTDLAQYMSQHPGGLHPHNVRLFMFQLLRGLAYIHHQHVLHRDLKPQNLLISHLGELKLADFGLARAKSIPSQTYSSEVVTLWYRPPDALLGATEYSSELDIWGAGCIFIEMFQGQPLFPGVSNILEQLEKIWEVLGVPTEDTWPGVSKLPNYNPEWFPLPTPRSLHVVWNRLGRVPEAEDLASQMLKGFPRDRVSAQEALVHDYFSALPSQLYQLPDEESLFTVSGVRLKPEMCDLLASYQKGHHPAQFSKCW
T11 sequence (Q8ND76 2-341 partner limits assumed): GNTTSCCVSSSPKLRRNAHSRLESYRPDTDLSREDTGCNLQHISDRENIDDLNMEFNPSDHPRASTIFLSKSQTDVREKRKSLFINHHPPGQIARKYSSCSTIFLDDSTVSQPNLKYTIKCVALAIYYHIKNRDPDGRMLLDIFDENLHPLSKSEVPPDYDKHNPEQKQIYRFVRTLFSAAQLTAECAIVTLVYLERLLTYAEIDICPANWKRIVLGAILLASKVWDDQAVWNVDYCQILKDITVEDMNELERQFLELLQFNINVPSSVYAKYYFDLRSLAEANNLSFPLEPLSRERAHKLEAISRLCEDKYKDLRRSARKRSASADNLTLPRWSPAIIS
T3 sequence (P06493 whole entry, the tested form may be a part): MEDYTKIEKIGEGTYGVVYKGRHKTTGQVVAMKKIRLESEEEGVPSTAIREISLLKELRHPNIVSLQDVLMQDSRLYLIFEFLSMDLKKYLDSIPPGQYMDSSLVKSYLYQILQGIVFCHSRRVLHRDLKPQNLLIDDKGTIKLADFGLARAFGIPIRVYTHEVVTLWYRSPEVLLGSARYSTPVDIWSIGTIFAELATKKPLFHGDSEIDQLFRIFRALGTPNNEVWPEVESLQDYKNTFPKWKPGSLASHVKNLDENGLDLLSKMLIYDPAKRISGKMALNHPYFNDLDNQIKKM

Row | SMILES | ΔTm MST4 (MST4) [°C] | EC50 (CDK11B/Cyclin K) [nM] | EC50 (CDK4/Cyclin D3) [nM] | EC50 (CDK1/Cyclin E1) [nM] | EC50 (CDK9/Cyclin K) [nM] | EC50 (CDK2/Cyclin D1) [nM] | EC50 (CDK3/Cyclin E1) [nM] | EC50 (CDK11B/Cyclin L2) [nM] | EC50 (CDK10/Cyclin L2) [nM] | EC50 (CDK13/Cyclin K) [nM] | EC50 (CDK4/Cyclin D1) [nM] | EC50 (CDK7) [nM] | EC50 (CDK2/Cyclin A2) [nM] | EC50 (CDK15/Cyclin Y) [nM] | ΔTm RPS6KA6 (RPS6KA6) [°C]
1 | CC(C)OC(=O)c1cc(Nc2ccnc(NCc3ccc(NC(=O)OC(C)(C)C)cc3)n2)n[nH]1 [42d, isopropyl 3-((2-((4-((tert-butoxycarbonyl)amino)benzyl)amino)pyrimidin-4-yl)amino)-1H-pyrazole-5-carboxylate] | 0.1 | 3860 ± 1050 | 508 ± 86.6 | 200 ± 42.8 | 575 ± 157 | 4860 ± 2390 | 1270 ± 522 | 2990 ± 1330 | 333.6 ± 0.2 | 3830 ± 2280 | 1600 ± 409 | 1140 ± 658 | 2840 ± 1350 | 167 ± 14.9 | 
2 | N#CCc1ccc(Nc2nccc(Nc3cc(C4CC4)[nH]n3)n2)cc1 [compound 1, reference compound] | 7.1 | 926 ± 649 | 32.1 ± 3.1 | 5.2 ± 2.5 | 17.4 ± 5.4 | 38.6 ± 17.3 | 11.8 ± 4.5 | 669 ± 406 | 325 ± 36.4 | 66.1 ± 19.9 | 93.6 ± 23.6 | 103 ± 43.2 | 28.1 ± 7.5 | 93.4 ± 41.7 | 0.4
3 | COC(=O)c1cc(Nc2ccnc(NCCOCCNC(=O)OC(C)(C)C)n2)[nH]n1 [21d, methyl 5-((2-((2-(2-((tert-butoxycarbonyl)amino)ethoxy)ethyl)amino)pyrimidin-4-yl)amino)-1H-pyrazole-3-carboxylate] | 0.7 |  |  |  |  |  |  |  |  |  |  |  |  |  | -0.3
4 | CC(C)(C)OC(=O)Nc1ccc(CNc2nccc(Nc3cc(C(=O)OC(C)(C)C)[nH]n3)n2)cc1 [43d, tert-butyl 3-((2-((4-((tert-butoxycarbonyl)amino)benzyl)amino)pyrimidin-4-yl)amino)-1H-pyrazole-5-carboxylate] | -0.1 | 7960 ± 3290 | 908 ± 113 | 582 | 993 | 3070 ± 1860 | 2750 ± 959 | 3580 ± 1730 | 651 |  | 2140 ± 750 | 1460 ± 552 | 1520 ± 449 | 302 | 
5 | COC(=O)c1cc(Nc2ccnc(NCc3ccc(NC(=O)OC(C)(C)C)cc3)n2)[nH]n1 [21i, methyl 5-((2-((4-((tert-butoxycarbonyl)amino)benzyl)amino)pyrimidin-4-yl)amino)-1H-pyrazole-3-carboxylate] | -0.7 | 22900 ± 3740 | 6780 ± 1460 | 6420 ± 3460 | 7000 ± 2120 | 33500 ± 1520 | 12400 ± 4610 | 16700 ± 7890 | 7930 ± 2930 | 24200 ± 5880 | 10900 ± 3920 | 10400 ± 4770 | 11700 ± 2330 | 2090 ± 496 | -0.3
